EP0897923A1, “BENZOQUINOLIZINE DERIVATIVES AND MEDICINAL COMPOSITIONS” (priority 1996, dated 1997)
Marks after values point to notes of the source that are not given here.

Tests used:
Assay type in all cases: in vivo
SD rats [1] = assay: Effect on an IBS model (2): wrap-restraint stress, weight of fecal pellets, oral administration; details: for Inhibition (%) vs. control: weight of fecal pellets in one hour, male SD rats; for defecation accelerated by stress: result in words, summary of Test Examples 2 and 3, oral dose levels 10 and 30 mg/kg
Procedure: Six-week-old male SD rats, non-fasted, were used in groups of 8 individuals. In accordance with the method of Williams et al. (Gastroenterology, 1988; 94:611-621), animals in the control group and treatment groups were loaded with a wrap-restraint stress while those in the normal group were not loaded and weight (g) of the fecal pellets in the subsequent one-hour period was determined. In the treatment groups, a predetermined dose of the corresponding test drug was administered orally 60 minutes before stress loading. As reference control drugs, N-methyl-N-[(2RS,11bSR)-1,3,4,6,7,11b-hexahydro-2H-benzo[a]quinolizin-2-yl]propanesulfonamide hydrochloride (hereinafter referred to as Compound A) and N-(2-methanesulfonamidoethyl)-N-[(2RS,11bSR)-1,3,4,6,7,11b-hexahydro-2H-benzo[a]quinolizin-2-yl]benzenesulfonamide hydrochloride (hereinafter referred to as compound B), both of which are described in Japanese Laid-open S62-67031 as having gastrointestinal peristalsis-modulating activity were used. The inhibition rate (%) was calculated by means of the following equation. Inhibition rate = [(C-D)/(C-N)] x 100 [formula] where C represents the weight of the fecal pellets in the control group, D represents the weight of the fecal pellets in the treatment group, and N represents the weight of the fecal pellets in the normal group. Statistical significance of the treatment group versus the control group was tested by Dunnett's multiple comparison.

SD rats [2] = assay: Effect on an IBS model (3): water avoidance stress, number of fecal pellets, oral administration; details: number of fecal pellets in one hour, male SD rats
Procedure: Six-week-old male SD rats were used in groups of 8 individuals. In accordance with the method of Enck et al. (Gut, 1989; 30:455-459), animals in the control group and treatment groups were loaded with water avoidance stress, while those in the normal groups were not loaded and the number of fecal pellets during the subsequent one-hour period was determined. In the treatment groups, a predetermined dose of the corresponding test drug was administered orally 60 minutes before stress loading. As reference control drugs, Compound A and Compound B mentioned above were used. The inhibition rate (%) was calculated by means of the following equation. Inhibition rate (%) = [(NC-ND)/(NC-NN)] x 100 [formula] where NC represents the number of the fecal pellets in the control group, ND represents the number of the fecal pellets in the treatment group, and NN represents the number of the fecal pellets in the normal group. Statistical significance of the treatment group versus the control group was tested by Dunnett's multiple comparison.

SD rats [3] = assay: Effect on an IBS model (1): wrap-restraint stress, weight of fecal pellets, subcutaneous administration; details: 3 mg/kg subcutaneously 30 minutes before wrap-restraint stress, weight of fecal pellets in one hour, male SD rats
Procedure: Six-week-old male SD rats, non-fasted, were used in groups of 8 individuals. In accordance with the method of Williams et al. (Gastroenterology, 1988; 94:611-621), animals in the control group and treatment groups were loaded with a wrap-restraint stress while those in the normal group were not loaded and weight (g) of fecal pellets in the subsequent one-hour period was determined. In the treatment groups, a predetermined dose of the corresponding test drug was administered subcutaneously 30 minutes before stress loading. The inhibition rate (%) was calculated by means of the following equation. Inhibition rate = [(C-D)/(C-N)] x 100 [formula] where C represents the weight of the fecal pellets in the control group, D represents the weight of the fecal pellets in the treatment group, and N represents the weight of the fecal pellets in the normal group. Statistical significance of the treatment group versus the control group was tested by Dunnett's multiple comparison.

ddY mice = assay: Acute toxicity test; details: fasted male ddY mice, deaths during one week
Procedure: Six-week-old male ddY mice were used in groups of 5 individuals. The animals were fasted from the previous day (16-18 hours before the experiment) and a predetermined dose of the compound of the invention was administered orally. The number of deaths during the subsequent one-week period was investigated.

[4] = 10 mg/kg orally 60 minutes before wrap-restraint stress
[5] = 30 mg/kg orally 60 minutes before wrap-restraint stress
[6] = 30 mg/kg orally 60 minutes before water avoidance stress
[7] = 10 mg/kg orally 60 minutes before wrap-restraint stress, hydrochloride

## CCCS(=O)(=O)N(C)[C@@H]1CCN2CCc3ccccc3[C@@H]2C1.Cl (racemic) [Compound A, N-methyl-N-[(2RS,11bSR)-1,3,4,6,7,11b-hexahydro-2H-benzo[a]quinolizin-2-yl]propanesulfonamide hydrochloride, reference compound]
SD rats [1]; [4]
  Inhibition (%) vs. control: -1.2%
SD rats [1]; [5]
  Inhibition (%) vs. control: 1.4%
SD rats [1]
  defecation accelerated by stress: did not inhibit defecation accelerated by stress
SD rats [2]; [6]
  Inhibition (%) vs. control: -20.7%

## CS(=O)(=O)NCCN([C@@H]1CCN2CCc3ccccc3[C@@H]2C1)S(=O)(=O)c1ccccc1.Cl (racemic) [Compound B, N-(2-methanesulfonamidoethyl)-N-[(2RS,11bSR)-1,3,4,6,7,11b-hexahydro-2H-benzo[a]quinolizin-2-yl]benzenesulfonamide hydrochloride, reference compound]
SD rats [1]; [4]
  Inhibition (%) vs. control: -4.7%
SD rats [1]; [5]
  Inhibition (%) vs. control: -30.0%
SD rats [1]
  defecation accelerated by stress: did not inhibit defecation accelerated by stress
SD rats [2]; [6]
  Inhibition (%) vs. control: -58.3%

## COc1ccc2c(c1)CCN1CC[C@@H](N(C)S(C)(=O)=O)C[C@@H]21.Cl (racemic) [Compound No. 1, N-Methyl-N-[(2RS,11bSR)-9-methoxy-1,3,4,6,7,11b-hexahydro-2H-benzo[a]quinolizin-2-yl]methanesulfonamide hydrochloride]
SD rats [3]; hydrochloride
  Inhibition (%) vs. control: 97.7** %
SD rats [1]; [7]
  Inhibition (%) vs. control: 53.2* %
SD rats [1]; [5]
  Inhibition (%) vs. control: 96.6** %
SD rats [2]; [6]
  Inhibition (%) vs. control: 81.8* %
ddY mice; 100 mg/kg orally
  Dead/Total: 0/5

## COc1ccc(S(=O)(=O)N(C)[C@@H]2CCN3CCc4cc(OC)ccc4[C@@H]3C2)cc1.Cl (racemic) [Compound No. 6, N-Methyl-N-[(2RS,11bSR)-9-methoxy-1,3,4,6,7,11b-hexahydro-2H-benzo[a]quinolizin-2-yl]-4-methoxybenzenesulfonamide hydrochloride]
SD rats [3]
  Inhibition (%) vs. control: 86.2** %
ddY mice; 100 mg/kg orally
  Dead/Total: 0/5

## COc1ccc2c(c1)CCN1CC[C@@H](N(C)S(=O)(=O)c3ccccc3)C[C@@H]21.Cl (racemic) [Compound No. 7, N-methyl-N-[(2RS,11bSR)-9-methoxy-1,3,4,6,7,11b-hexahydro-2H-benzo[a]quinolizin-2-yl]benzenesulfonamide hydrochloride]
SD rats [3]
  Inhibition (%) vs. control: 76.6** %

## COc1ccc2c(c1)CCN1CC[C@@H](N(C)S(=O)(=O)c3ccc(F)cc3)C[C@@H]21.Cl (racemic) [Compound No. 13, N-methyl-N-[(2RS,11bSR)-9-methoxy-1,3,4,6,7,11b-hexahydro-2H-benzo[a]quinolizin-2-yl]-4-fluorobenzenesulfonamide hydrochloride]
SD rats [3]
  Inhibition (%) vs. control: 72.4** %

## COc1ccc2c(c1)CCN1CC[C@@H](N(C)S(=O)(=O)c3cc(OC)ccc3OC)C[C@@H]21.Cl (racemic) [Compound No. 14, N-methyl-N-[(2RS,11bSR)-9-methoxy-1,3,4,6,7,11b-hexahydro-2H-benzo[a]quinolizin-2-yl]-2,5-dimethoxybenzenesulfonamide hydrochloride]
SD rats [3]
  Inhibition (%) vs. control: 75.6** %

## COc1ccc2c(c1)CCN1CC[C@@H](N(C)S(=O)(=O)N(C)C)C[C@@H]21.Cl (racemic) [Compound No. 16, N,N-Dimethyl-N'-[(2RS-11bSR)-9-methoxy-1,3,4,6,7,11b-hexahydro-2H-benzo[a]quinolizin-2-yl]-N'-methylsulfamide hydrochloride]
SD rats [1]; [4]
  Inhibition (%) vs. control: 73.3** %
SD rats [1]; [5]
  Inhibition (%) vs. control: 91.7** %
ddY mice; 300 mg/kg orally
  Dead/Total: 0/5

## COc1ccc2c(c1)CCN1CC[C@@H](N(C)S(C)(=O)=O)C[C@@H]21.Cl [Compound No. 18, N-Methyl-N-[(2R,11bS)-9-methoxy-1,3,4,6,7,11b-hexahydro-2H-benzo[a]quinolizin-2-yl]methanesulfonamide hydrochloride]
SD rats [3]; hydrochloride
  Inhibition (%) vs. control: 96.6** %
SD rats [1]; [7]
  Inhibition (%) vs. control: 91.1** %
SD rats [2]; 3 mg/kg orally 60 minutes before water avoidance stress
  Inhibition (%) vs. control: 72.4* %
SD rats [2]; 10 mg/kg orally 60 minutes before water avoidance stress
  Inhibition (%) vs. control: 82.9** %
ddY mice; 250 mg/kg orally
  Dead/Total: 0/5

## CCS(=O)(=O)N(C)[C@@H]1CCN2CCc3cc(OC)ccc3[C@@H]2C1.Cl [Compound No. 20, N-Methyl-N-[(2R,11bS)-9-methoxy-1,3,4,6,7,11b-hexahydro-2H-benzo[a]quinolizin-2-yl]ethanesulfonamide hydrochloride]
SD rats [1]; [4]
  Inhibition (%) vs. control: 69.4** %
SD rats [1]; [5]
  Inhibition (%) vs. control: 88.9** %

## CCN([C@@H]1CCN2CCc3cc(OC)ccc3[C@@H]2C1)S(C)(=O)=O.Cl [Compound No. 21, N-Ethyl-N-[(2R,11bS)-9-methoxy-1,3,4,6,7,11b-hexahydro-2H-benzo[a]quinolizin-2-yl]methanesulfonamide hydrochloride]
SD rats [1]; [4]
  Inhibition (%) vs. control: 64.6** %
SD rats [1]; [5]
  Inhibition (%) vs. control: 92.6** %
ddY mice; 250 mg/kg orally
  Dead/Total: 0/5
